How the values were obtained:
[1] = In vivo pharmacokinetic study in rats; settings: rat, plasma, oral, 10 mg/kg
Procedure: Blood was collected from rats at different times after administration at the following time points: 0.083 h, 0.25 h, 0.5 h, 1 h, 2 h, 4 h, 8 h, and 24 h after intravenous administration; 0.25 h, 0.5 h, 1 h, 2 h, 4 h, 6 h, 8 h, and 24 h after oral administration. About 0.20 mL of blood was collected via jugular vein or other suitable means for each sample at the corresponding time, with heparin sodium for anticoagulation; the blood sample was placed on ice after collection and centrifuged within 1 h to separate the plasma (centrifugation conditions: centrifugal force 6800 g, 6 min, 2-8° C.). The collected plasma samples were stored in a refrigerator at −80° C. before analysis, and the remaining plasma samples continued to be temporarily stored in the refrigerator at −80° C. for one month after analysis.
Pharmacokinetic parameters such as AUC (0-t), T1/2, Cmax, Tmax, and MRT were calculated using WinNonlin based on plasma concentration data at different time points. The plasma drug concentration-time curve was plotted with BLQ recorded as 0. For the calculation of pharmacokinetic parameters, the concentration before administration was calculated as 0; BLQ before Cmax (including “No peak”) was calculated as 0; no BLQ (including “No peak”) appeared after Cmax participated in the calculation. The experiment was completed by Shanghai Medicilon Inc.

[2] = biological target: PI3 Kinase (p110a(H1047R)/p85a)(h) (Homo sapiens (Human), UniProt P42336, H1047R); assay: Kinase Profiler 10 μM panel
Chain of PI3 Kinase (p110a(H1047R)/p85a)(h) (P42336 whole entry H1047R): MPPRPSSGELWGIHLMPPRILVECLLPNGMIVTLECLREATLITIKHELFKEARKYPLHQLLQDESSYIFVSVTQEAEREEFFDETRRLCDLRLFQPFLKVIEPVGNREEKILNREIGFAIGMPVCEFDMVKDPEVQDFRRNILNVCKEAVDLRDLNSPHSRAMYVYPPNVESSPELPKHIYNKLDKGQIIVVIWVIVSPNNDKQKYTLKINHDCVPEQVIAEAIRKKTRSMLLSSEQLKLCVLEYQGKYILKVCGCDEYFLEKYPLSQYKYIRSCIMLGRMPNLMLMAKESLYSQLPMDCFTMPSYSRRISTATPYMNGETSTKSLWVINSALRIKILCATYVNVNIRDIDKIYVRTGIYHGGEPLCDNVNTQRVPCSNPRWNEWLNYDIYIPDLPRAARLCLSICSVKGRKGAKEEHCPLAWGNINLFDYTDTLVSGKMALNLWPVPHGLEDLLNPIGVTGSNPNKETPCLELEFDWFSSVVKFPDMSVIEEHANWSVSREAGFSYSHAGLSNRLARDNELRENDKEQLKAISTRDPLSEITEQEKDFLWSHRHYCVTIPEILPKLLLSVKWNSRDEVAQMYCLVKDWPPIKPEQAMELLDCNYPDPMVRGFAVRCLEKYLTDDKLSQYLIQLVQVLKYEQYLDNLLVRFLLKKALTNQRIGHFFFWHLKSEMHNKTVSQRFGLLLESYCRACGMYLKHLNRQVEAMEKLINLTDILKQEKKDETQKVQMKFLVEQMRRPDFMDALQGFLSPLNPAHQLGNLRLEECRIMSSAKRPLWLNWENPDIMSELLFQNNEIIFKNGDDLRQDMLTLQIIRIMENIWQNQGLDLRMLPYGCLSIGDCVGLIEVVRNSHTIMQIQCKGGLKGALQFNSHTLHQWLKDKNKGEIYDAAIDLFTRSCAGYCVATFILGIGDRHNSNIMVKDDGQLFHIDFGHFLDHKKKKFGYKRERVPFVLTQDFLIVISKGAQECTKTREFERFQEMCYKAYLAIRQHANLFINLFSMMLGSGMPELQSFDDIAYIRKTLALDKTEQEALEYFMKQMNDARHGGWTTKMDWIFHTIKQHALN
Chain of PI3 Kinase (p110a(H1047R)/p85a)(h) (P27986 whole entry partner): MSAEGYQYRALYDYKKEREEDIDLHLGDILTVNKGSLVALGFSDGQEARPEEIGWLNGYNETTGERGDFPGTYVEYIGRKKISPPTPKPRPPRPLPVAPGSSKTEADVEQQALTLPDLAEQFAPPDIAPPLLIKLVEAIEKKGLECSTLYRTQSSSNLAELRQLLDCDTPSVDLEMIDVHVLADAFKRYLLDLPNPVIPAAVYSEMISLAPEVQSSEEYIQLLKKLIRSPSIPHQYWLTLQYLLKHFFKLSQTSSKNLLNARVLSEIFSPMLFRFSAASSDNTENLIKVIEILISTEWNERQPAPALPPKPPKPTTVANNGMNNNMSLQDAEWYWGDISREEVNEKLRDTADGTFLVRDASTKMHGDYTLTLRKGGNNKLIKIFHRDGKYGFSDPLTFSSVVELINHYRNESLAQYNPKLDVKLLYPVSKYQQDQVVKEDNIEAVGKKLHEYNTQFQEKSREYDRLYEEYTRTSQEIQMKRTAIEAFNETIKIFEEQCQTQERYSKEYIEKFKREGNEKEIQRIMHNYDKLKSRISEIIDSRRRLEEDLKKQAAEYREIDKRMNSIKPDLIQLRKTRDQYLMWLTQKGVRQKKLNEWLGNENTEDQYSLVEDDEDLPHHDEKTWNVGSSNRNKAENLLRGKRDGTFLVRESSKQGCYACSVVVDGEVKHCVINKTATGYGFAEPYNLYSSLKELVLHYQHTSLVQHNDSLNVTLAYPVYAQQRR
Procedure: (§1) In vitro kinase assays were conducted using Kinase Profiler services provided by Eurofins. The experimental method was as follows: the small molecule compound to be tested (0.001-10 μM), the protein kinase to be tested were incubated with a buffer containing substrate, 10 mM magnesium acetate, and [γ-^33P-ATP], the reaction was started by adding Mg\TPmix, after incubation for a period of time at room temperature, a 3% phosphate solution was added to the buffer to stop the reaction. Subsequently, 10 μL of the reaction mixture was quantitatively pipetted onto P30 filter paper, which was washed three times with 75 mM phosphate solution and then once with methanol. The P30 filter paper was air-dried and scintillation fluid was added for scintillation counting.

Abl (Q252H)(h) = Abl (Q252H)(h) (Homo sapiens (Human), UniProt P00519, Q252H); assay: Kinase Profiler 10 μM panel
Procedure: as §1

Fyn(h) = Fyn(h) (Homo sapiens (Human), UniProt P06241); assay: Kinase Profiler 10 μM panel
Procedure: as §1

PI3KC2g(h) = PI3KC2g(h) (Homo sapiens (Human), UniProt O75747); assay: Kinase Profiler 10 μM panel
Procedure: as §1

Arg(m) = Arg(m) (Mus musculus (Mouse), UniProt Q4JIM5); assay: Kinase Profiler 10 μM panel
Procedure: as §1

Hck(h) activated = Hck(h) activated (Homo sapiens (Human), UniProt P08631); assay: Kinase Profiler 10 μM panel
Chain of Hck(h) activated (P08631 whole entry): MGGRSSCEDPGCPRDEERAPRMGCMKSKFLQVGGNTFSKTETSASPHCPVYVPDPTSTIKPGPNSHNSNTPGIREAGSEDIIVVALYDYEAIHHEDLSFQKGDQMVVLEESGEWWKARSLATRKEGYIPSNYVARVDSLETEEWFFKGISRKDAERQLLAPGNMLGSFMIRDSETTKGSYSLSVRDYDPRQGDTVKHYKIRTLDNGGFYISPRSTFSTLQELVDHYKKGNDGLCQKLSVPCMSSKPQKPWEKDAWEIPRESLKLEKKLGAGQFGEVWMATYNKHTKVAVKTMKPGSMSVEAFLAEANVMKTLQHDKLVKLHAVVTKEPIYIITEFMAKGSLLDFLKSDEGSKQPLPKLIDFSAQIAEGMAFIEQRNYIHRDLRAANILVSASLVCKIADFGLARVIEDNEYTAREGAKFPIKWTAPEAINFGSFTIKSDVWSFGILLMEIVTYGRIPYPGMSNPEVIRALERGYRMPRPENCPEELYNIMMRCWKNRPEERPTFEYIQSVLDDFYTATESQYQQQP
Procedure: as §1

PKCδ(h) = PKCδ(h) (Homo sapiens (Human), UniProt Q05655); assay: Kinase Profiler 10 μM panel
Procedure: as §1

Lck(h) activated = Lck(h) activated (Homo sapiens (Human), UniProt P06239); assay: Kinase Profiler 10 μM panel
Procedure: as §1

CDK17/cyclinY(h) = CDK17/cyclinY(h) (Homo sapiens (Human), UniProt Q00537); assay: Kinase Profiler 10 μM panel
Procedure: as §1

MAPK2(h) = MAPK2(h) (Homo sapiens (Human), UniProt P28482); assay: Kinase Profiler 10 μM panel
Chain of MAPK2(h) (P28482 whole entry): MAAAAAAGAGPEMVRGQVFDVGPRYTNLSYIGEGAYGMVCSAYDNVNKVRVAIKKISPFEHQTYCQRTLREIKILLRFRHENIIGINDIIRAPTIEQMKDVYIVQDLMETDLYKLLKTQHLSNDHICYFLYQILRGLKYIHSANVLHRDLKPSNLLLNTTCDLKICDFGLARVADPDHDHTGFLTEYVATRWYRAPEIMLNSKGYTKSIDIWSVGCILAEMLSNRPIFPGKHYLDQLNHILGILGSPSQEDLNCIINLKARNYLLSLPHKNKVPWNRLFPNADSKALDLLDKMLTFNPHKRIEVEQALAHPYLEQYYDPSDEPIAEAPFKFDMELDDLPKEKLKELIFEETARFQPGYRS
Procedure: as §1

MARK4(h) = MARK4(h) (Homo sapiens (Human), UniProt Q96L34); assay: Kinase Profiler 10 μM panel
Chain of MARK4(h) (Q96L34 whole entry): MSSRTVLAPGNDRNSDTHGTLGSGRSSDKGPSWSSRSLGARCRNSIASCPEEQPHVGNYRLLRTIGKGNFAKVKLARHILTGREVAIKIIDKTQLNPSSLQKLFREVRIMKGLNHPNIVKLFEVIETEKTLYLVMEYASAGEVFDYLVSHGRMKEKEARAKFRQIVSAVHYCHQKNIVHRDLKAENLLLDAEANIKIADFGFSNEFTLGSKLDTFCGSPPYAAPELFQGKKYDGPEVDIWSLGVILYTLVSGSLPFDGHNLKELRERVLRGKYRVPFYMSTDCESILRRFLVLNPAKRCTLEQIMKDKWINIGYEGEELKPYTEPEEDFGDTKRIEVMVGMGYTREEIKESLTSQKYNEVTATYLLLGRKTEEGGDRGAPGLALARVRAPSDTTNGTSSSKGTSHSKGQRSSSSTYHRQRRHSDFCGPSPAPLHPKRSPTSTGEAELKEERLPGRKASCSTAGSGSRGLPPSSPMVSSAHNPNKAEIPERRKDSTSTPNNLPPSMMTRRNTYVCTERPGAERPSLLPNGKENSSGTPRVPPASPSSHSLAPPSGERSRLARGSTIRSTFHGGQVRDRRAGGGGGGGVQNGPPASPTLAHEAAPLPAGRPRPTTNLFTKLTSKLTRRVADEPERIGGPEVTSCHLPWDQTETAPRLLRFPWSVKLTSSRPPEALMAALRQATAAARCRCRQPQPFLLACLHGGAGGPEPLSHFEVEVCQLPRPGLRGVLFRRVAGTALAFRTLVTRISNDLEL
Procedure: as §1

SBK1(h) = SBK1(h) (Homo sapiens (Human), UniProt Q52WX2); assay: Kinase Profiler 10 μM panel
Chain of SBK1(h) (Q52WX2 whole entry): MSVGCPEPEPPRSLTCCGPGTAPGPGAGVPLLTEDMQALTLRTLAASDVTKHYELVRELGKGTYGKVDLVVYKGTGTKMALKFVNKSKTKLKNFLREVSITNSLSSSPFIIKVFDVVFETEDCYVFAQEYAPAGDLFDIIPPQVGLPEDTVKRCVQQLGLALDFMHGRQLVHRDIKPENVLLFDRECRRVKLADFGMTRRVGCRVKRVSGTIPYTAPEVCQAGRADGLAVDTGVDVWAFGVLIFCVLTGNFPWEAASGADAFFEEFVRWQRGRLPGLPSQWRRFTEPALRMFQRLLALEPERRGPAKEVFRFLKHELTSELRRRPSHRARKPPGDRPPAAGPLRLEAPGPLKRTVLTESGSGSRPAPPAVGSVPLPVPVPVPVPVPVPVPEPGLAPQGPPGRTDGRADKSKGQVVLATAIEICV
Procedure: as §1

SLK(h) = SLK(h) (Homo sapiens (Human), UniProt Q9H2G2); assay: Kinase Profiler 10 μM panel
Procedure: as §1

cKit(V560G)(h) = cKit(V560G)(h) (Homo sapiens (Human), UniProt P10721, V560G); assay: Kinase Profiler 10 μM panel
Procedure: as §1

MLK3(h) = MLK3(h) (Homo sapiens (Human), UniProt Q16584); assay: Kinase Profiler 10 μM panel
Procedure: The experimental method was as follows: the small molecule compound to be tested (0.001-10 μM), the protein kinase to be tested were incubated with a buffer containing substrate, 10 mM magnesium acetate, and [γ-^33P-ATP], the reaction was started by adding Mg\TPmix, after incubation for a period of time at room temperature, a 3% phosphate solution was added to the buffer to stop the reaction. Subsequently, 10 μL of the reaction mixture was quantitatively pipetted onto P30 filter paper, which was washed three times with 75 mM phosphate solution and then once with methanol. The P30 filter paper was air-dried and scintillation fluid was added for scintillation counting.

c-RAF(h) = c-RAF(h) (Homo sapiens (Human), UniProt P04049, Y340D/Y341D); assay: Kinase Profiler 10 μM panel
Chain of c-RAF(h) (P04049 306-648 Y340D/Y341D limits assumed): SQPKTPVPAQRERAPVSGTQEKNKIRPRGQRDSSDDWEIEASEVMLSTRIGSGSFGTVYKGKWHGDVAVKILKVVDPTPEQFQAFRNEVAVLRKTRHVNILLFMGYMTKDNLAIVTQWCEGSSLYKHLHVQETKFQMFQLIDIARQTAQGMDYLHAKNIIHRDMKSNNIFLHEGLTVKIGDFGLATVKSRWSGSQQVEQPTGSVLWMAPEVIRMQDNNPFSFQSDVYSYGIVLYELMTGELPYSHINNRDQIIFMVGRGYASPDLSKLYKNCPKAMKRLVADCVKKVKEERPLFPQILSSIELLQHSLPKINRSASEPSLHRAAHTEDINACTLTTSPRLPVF
Procedure: as §1

MST1(h) = MST1(h) (Homo sapiens (Human), UniProt Q13043); assay: Kinase Profiler 10 μM panel
Procedure: as §1

TAO1(h) = TAO1(h) (Homo sapiens (Human), UniProt Q7L7X3); assay: Kinase Profiler 10 μM panel
Procedure: as §1

mTOR/FKBP12(h) = mTOR/FKBP12(h) (Homo sapiens (Human), UniProt P42345); assay: Kinase Profiler 10 μM panel
Procedure: as §1

MuSK(h) = MuSK(h) (Homo sapiens (Human), UniProt O15146); assay: Kinase Profiler 10 μM panel
Chain of MuSK(h) (O15146 24-869): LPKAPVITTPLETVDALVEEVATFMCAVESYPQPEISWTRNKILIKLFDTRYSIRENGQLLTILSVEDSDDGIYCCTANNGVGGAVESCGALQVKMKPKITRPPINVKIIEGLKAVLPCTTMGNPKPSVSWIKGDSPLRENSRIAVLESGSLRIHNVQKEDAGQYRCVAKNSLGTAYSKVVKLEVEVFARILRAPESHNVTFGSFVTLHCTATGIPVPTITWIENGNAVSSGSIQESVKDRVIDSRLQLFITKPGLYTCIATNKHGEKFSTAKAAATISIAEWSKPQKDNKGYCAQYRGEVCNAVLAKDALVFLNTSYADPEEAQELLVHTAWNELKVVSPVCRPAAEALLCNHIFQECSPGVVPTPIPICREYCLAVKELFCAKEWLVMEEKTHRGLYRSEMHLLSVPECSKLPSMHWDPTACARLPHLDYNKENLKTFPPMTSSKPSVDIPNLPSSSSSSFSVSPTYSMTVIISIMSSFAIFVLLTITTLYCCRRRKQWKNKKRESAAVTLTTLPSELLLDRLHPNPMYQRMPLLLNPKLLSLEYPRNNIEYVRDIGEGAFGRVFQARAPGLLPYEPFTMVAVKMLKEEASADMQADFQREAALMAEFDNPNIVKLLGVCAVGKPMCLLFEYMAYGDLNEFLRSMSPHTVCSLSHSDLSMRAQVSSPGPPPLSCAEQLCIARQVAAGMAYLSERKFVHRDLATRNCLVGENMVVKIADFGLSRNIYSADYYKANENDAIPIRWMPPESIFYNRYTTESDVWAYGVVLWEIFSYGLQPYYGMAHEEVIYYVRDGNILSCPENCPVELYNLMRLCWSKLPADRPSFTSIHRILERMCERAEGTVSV
Procedure: as §1

TGFBR2(h) = TGFBR2(h) (Homo sapiens (Human), UniProt P37173); assay: Kinase Profiler 10 μM panel
Procedure: as §1

NDR2(h) = NDR2(h) (Homo sapiens (Human), UniProt Q9Y2H1); assay: Kinase Profiler 10 μM panel
Procedure: as §1

NEK2(h) = NEK2(h) (Homo sapiens (Human), UniProt P51955); assay: Kinase Profiler 10 μM panel
Procedure: as §1

TNIK(h) = TNIK(h) (Homo sapiens (Human), UniProt Q9UKE5); assay: Kinase Profiler 10 μM panel
Procedure: as §1

FGFR2(h) = FGFR2(h) (Homo sapiens (Human), UniProt P21802); assay: Kinase Profiler 10 μM panel
Procedure: as §1

FGFR4(h) = FGFR4(h) (Homo sapiens (Human), UniProt P22455); assay: Kinase Profiler 10 μM panel
Procedure: as §1

**Q.** For `C[C@H](NC(=O)c1c[nH]c2ccc(-c3ccc4nc(NC(=O)C5CC5)sc4c3)cc12)c1cccc(F)c1` [Compound 34, (S)-5-(2-(cyclopropanecarboxamido)benzo[d]thiazol-6-yl)-N-(1-(3-fluorophenyl)ethyl)-1H-indole-3-carboxamide], which AUC(0-t) [1] is on record?
**A.** Its AUC(0-t) is 4450 ng·h/mL.

**Q.** What about the Cmax [1] of the same compound?
**A.** The Cmax was 852 ng/mL.

**Q.** What about the Tmax [1] of the same compound?
**A.** The Tmax was 4 h.

**Q.** What about the bioavailability [1] of the same compound?
**A.** Its bioavailability is 7.89%.

**Q.** And the half-life [1]?
**A.** The half-life was 2.06 h.

**Q.** What about the Inhibition ratio [2] of the same compound?
**A.** The Inhibition ratio was 34%.

**Q.** What about the Inhibition ratio (Abl (Q252H)(h)) of the same compound?
**A.** Its Inhibition ratio is 97%.

**Q.** And the Inhibition ratio (Fyn(h))?
**A.** Its Inhibition ratio is 43%.

**Q.** And the Inhibition ratio (PI3KC2g(h))?
**A.** Its Inhibition ratio is 76%.

**Q.** And the Inhibition ratio (Arg(m))?
**A.** The Inhibition ratio was 87%.

**Q.** And the Inhibition ratio (Hck(h) activated)?
**A.** The Inhibition ratio was 26%.

**Q.** And the Inhibition ratio (PKCδ(h))?
**A.** The Inhibition ratio was 7%.

**Q.** What about the Inhibition ratio (Lck(h) activated) of the same compound?
**A.** The Inhibition ratio was 76%.

**Q.** And the Inhibition ratio (CDK17/cyclinY(h))?
**A.** Its Inhibition ratio is −11%.

**Q.** What about the Inhibition ratio (MAPK2(h)) of the same compound?
**A.** The Inhibition ratio was 11%.

**Q.** And the Inhibition ratio (MARK4(h))?
**A.** The Inhibition ratio was 3%.

**Q.** And the Inhibition ratio (SBK1(h))?
**A.** Its Inhibition ratio is −12%.

**Q.** And the Inhibition ratio (SLK(h))?
**A.** The Inhibition ratio was 50%.

**Q.** And the Inhibition ratio (cKit(V560G)(h))?
**A.** Its Inhibition ratio is 88%.

**Q.** And the Inhibition ratio (MLK3(h))?
**A.** Its Inhibition ratio is 101%.

**Q.** What about the Inhibition ratio (c-RAF(h)) of the same compound?
**A.** The Inhibition ratio was 15%.

**Q.** What about the Inhibition ratio (MST1(h)) of the same compound?
**A.** Its Inhibition ratio is 5%.

**Q.** What about the Inhibition ratio (TAO1(h)) of the same compound?
**A.** The Inhibition ratio was 24%.

**Q.** And the Inhibition ratio (mTOR/FKBP12(h))?
**A.** The Inhibition ratio was 10%.

**Q.** What about the Inhibition ratio (MuSK(h)) of the same compound?
**A.** The Inhibition ratio was 88%.

**Q.** What about the Inhibition ratio (TGFBR2(h)) of the same compound?
**A.** The Inhibition ratio was 25%.

**Q.** What about the Inhibition ratio (NDR2(h)) of the same compound?
**A.** Its Inhibition ratio is 23%.

**Q.** And the Inhibition ratio (NEK2(h))?
**A.** Its Inhibition ratio is 21%.

**Q.** What about the Inhibition ratio (TNIK(h)) of the same compound?
**A.** The Inhibition ratio was 99%.

**Q.** And the Inhibition ratio (FGFR2(h))?
**A.** Its Inhibition ratio is 63%.

**Q.** What about the Inhibition ratio (FGFR4(h)) of the same compound?
**A.** The Inhibition ratio was 5%.

**Q.** With `C[C@H](NC(=O)c1cn(C)c2ccc(-c3ccn4nc(NC(=O)C5CC5)nc4c3)cc12)c1cccc(F)c1` [Compound 94, (S)-5-(2-(cyclopropanecarboxamido)-[1,2,4]triazolo[1,5-a]pyridin-7-yl)-N-(1-(3-fluorophenyl)ethyl)-1-methyl-1H-indole-3-carboxamide] as the compound, how does the AUC(0-t) [1] read?
**A.** The AUC(0-t) was 1850 ng·h/mL.

**Q.** And the Cmax [1]?
**A.** The Cmax was 330 ng/mL.

**Q.** And the Tmax [1]?
**A.** The Tmax was 1.67 h.

**Q.** What about the bioavailability [1] of the same compound?
**A.** Its bioavailability is 12.1%.

**Q.** What about the half-life [1] of the same compound?
**A.** The half-life was 7.02 h.

**Q.** What about the Inhibition ratio/% [2] of the same compound?
**A.** Its Inhibition ratio/% is 24%.

**Q.** And the Inhibition ratio/% (Abl (Q252H)(h))?
**A.** The Inhibition ratio/% was 29%.

**Q.** What about the Inhibition ratio/% (Fyn(h)) of the same compound?
**A.** The Inhibition ratio/% was −43%.

**Q.** And the Inhibition ratio/% (PI3KC2g(h))?
**A.** The Inhibition ratio/% was 24%.

**Q.** And the Inhibition ratio/% (Arg(m))?
**A.** The Inhibition ratio/% was 11%.

**Q.** What about the Inhibition ratio/% (Hck(h) activated) of the same compound?
**A.** The Inhibition ratio/% was −12%.

**Q.** What about the Inhibition ratio/% (PKCδ(h)) of the same compound?
**A.** Its Inhibition ratio/% is 48%.

**Q.** And the Inhibition ratio/% (Lck(h) activated)?
**A.** Its Inhibition ratio/% is 46%.

**Q.** What about the Inhibition ratio/% (CDK17/cyclinY(h)) of the same compound?
**A.** The Inhibition ratio/% was 70%.

**Q.** What about the Inhibition ratio/% (MAPK2(h)) of the same compound?
**A.** The Inhibition ratio/% was 40%.

**Q.** And the Inhibition ratio/% (MARK4(h))?
**A.** Its Inhibition ratio/% is 38%.

**Q.** What about the Inhibition ratio/% (SBK1(h)) of the same compound?
**A.** Its Inhibition ratio/% is −19%.

**Q.** What about the Inhibition ratio/% (SLK(h)) of the same compound?
**A.** Its Inhibition ratio/% is 15%.

**Q.** And the Inhibition ratio/% (cKit(V560G)(h))?
**A.** Its Inhibition ratio/% is 65%.

**Q.** What about the Inhibition ratio/% (MLK3(h)) of the same compound?
**A.** The Inhibition ratio/% was 102%.

**Q.** What about the Inhibition ratio/% (c-RAF(h)) of the same compound?
**A.** The Inhibition ratio/% was −13%.

**Q.** What about the Inhibition ratio/% (MST1(h)) of the same compound?
**A.** Its Inhibition ratio/% is 20%.

**Q.** And the Inhibition ratio/% (TAO1(h))?
**A.** Its Inhibition ratio/% is 50%.

**Q.** What about the Inhibition ratio/% (mTOR/FKBP12(h)) of the same compound?
**A.** The Inhibition ratio/% was 36%.

**Q.** And the Inhibition ratio/% (MuSK(h))?
**A.** The Inhibition ratio/% was 13%.

**Q.** And the Inhibition ratio/% (TGFBR2(h))?
**A.** Its Inhibition ratio/% is −6%.

**Q.** What about the Inhibition ratio/% (NDR2(h)) of the same compound?
**A.** Its Inhibition ratio/% is 46%.

**Q.** And the Inhibition ratio/% (NEK2(h))?
**A.** The Inhibition ratio/% was 24%.

**Q.** And the Inhibition ratio/% (TNIK(h))?
**A.** Its Inhibition ratio/% is 59%.

**Q.** And the Inhibition ratio/% (FGFR2(h))?
**A.** Its Inhibition ratio/% is −13%.

**Q.** What about the Inhibition ratio/% (FGFR4(h)) of the same compound?
**A.** Its Inhibition ratio/% is 37%.
